Results taken from patent US5436271A, “N^6 -(hydrazinoiminomethyl)lysine and method of inhibiting nitric oxide formation in body” (Cornell Research Foundation, Inc., priority 1993, dated 1995).
Like-named read-outs stand apart in the source and are kept apart here. Blank lines part the entries; values can stand above or below the molecule they belong to.

How the values were obtained:
[1] = biological target: T1, constitutive isoform of nitric oxide synthase (Rattus norvegicus, UniProt Q62600); assay: Inhibition of acetylcholine relaxation of phenylephrine-contracted rat aortic rings (Example VI)
T1 construct: from tissue; host or cells: isolated rat aortic rings (2-3 mm)
T1 sequence (Q62600 2-1202 limits assumed): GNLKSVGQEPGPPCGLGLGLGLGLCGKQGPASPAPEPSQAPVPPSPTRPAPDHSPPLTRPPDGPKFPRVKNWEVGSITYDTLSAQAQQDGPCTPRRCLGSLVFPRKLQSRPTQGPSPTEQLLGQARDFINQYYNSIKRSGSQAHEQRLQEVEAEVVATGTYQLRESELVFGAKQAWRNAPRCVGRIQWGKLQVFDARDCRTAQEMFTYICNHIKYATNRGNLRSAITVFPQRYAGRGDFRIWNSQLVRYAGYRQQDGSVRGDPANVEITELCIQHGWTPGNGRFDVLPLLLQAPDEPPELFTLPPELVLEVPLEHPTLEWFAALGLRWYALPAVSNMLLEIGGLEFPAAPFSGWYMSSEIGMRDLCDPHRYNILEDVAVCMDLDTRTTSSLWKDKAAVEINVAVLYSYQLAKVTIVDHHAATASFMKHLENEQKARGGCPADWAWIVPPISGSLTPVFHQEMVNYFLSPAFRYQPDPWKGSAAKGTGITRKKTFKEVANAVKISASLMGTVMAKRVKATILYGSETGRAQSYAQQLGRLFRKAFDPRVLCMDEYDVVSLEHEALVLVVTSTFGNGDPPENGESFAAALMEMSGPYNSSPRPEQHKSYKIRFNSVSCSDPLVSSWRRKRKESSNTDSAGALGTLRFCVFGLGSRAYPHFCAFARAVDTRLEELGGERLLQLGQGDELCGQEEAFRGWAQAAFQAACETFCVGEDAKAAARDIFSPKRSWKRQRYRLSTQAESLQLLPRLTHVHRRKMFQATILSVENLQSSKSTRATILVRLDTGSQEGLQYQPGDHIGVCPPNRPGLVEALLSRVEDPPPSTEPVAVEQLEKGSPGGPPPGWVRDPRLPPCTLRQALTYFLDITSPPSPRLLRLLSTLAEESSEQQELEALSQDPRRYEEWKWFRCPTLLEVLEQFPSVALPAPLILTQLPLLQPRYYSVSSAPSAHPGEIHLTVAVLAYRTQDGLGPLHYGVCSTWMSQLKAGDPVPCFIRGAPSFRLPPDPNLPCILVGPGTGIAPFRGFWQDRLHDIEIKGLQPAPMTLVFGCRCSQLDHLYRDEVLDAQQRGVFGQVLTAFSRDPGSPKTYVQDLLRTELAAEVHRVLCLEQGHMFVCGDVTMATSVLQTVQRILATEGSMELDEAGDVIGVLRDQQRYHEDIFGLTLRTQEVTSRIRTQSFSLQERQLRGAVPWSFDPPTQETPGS
Procedure: In vitro studies with rat aortic rings were carried out to test the effect of N^6 -(hydrazinoiminomethyl)-L-lysine relative to other known inhibitors of the constitutive isoform of nitric oxide synthase. Aortic rings (2-3 mm) were isolated, suspended under a resting tension of 2.00 gm in 5 ml glass chambers containing Krebs-Henseleit solution gassed with 95% 02 and 5% CO2 at 37° C. as described previously for vascular rings from guinea pigs (O.A. Fasehun et al, (1990) J. Pharmacol. Exp. Ther. 255, 1348-1353). The aortic rings were then contracted by addition of 0.03 μM phenylephrine to the bathing solution, and the tension of the rings was measured. Acetylcholine, an agonist that stimulates the formation of nitric oxide by constitutive nitric oxide synthase in the vascular endothelium, was next added to a final concentration of 1 μM. The nitric oxide formed in response to acetylcholine causes the vascular smooth muscle of the aortic rings to relax, and the decrease in tension is measured. Inhibitors of nitric oxide synthase decrease the extent to which acetylcholine causes relaxation of the phenylephrine-contracted aortic rings. In the study, rings were contracted with phenylephrine, relaxed with acetylcholine, and then increasing doses of inhibitor were added to the bathing solution to overcome the effect of acetylcholine. The dose of inhibitor is denoted on the X-axis.

[2] = tested on: inducible isoform of nitric oxide synthase; conditions: cited from earlier work
nitric oxide synthase = assay: Efficacy on arterial blood pressure in endotoxin-treated anesthetized dog (Example IV); type: in vivo
Procedure: To test the efficacy of N^6 -(hydrazinoiminomethyl)-L-lysine, a 28 kg fasted dog was anesthetized with pentobarbital (25 mg/kg, i.v.), orotracheally intubated to allow ventilation with a Harvard pump, and instrumented to allow arterial blood pressure to be monitored via a central catheter. After a constant normal blood pressure had been observed for about 90 min., a solution containing 2 mg/kg body weight of endotoxin (E. coli lipopolysaccharide obtained from Sigma Chemical Co.) was given as an intravenous bolus injection. […] When the mean arterial blood pressure had declined to about 70 mm Hg, a bolus intravenous injection of 20 mg/kg of N^6 -(hydrazinoiminomethyl)-L-lysine monohydrochloride (denote HAA) was given. […] At that time, the dog was given a bolus intravenous injection of 400 mg/kg of L-arginine (denoted L-ARG), the substrate of nitric oxide synthase and a specific antagonist of nitric oxide synthase inhibitors competing for the L-arginine binding site.

[3] = biological target: T2, cytokine-induced nitric oxide synthase isozyme (Mus musculus, UniProt P29477); assay: Nitrite formation by cytokine-induced cultured mouse brain endothelial cells (Example V); type: cell-based
T2 construct: endogenous in cells; host or cells: cultured mouse brain endothelial cells induced with gamma-interferon and tumor necrosis factor
Procedure: In vitro studies with cultured endothelial cells were carried out to test the efficacy of N^6 -(hydrazinoiminomethyl)-L-lysine as an inhibitor of the cytokine-induced nitric oxide synthase isozyme relative to established inhibitors. Cultured mouse brain endothelial cells were grown for 18 hrs. in the presence of 1000 units/ml of gamma-interferon and 5000 units/ml of tumor necrosis factor, conditions shown previously to cause enzyme induction (R. Kilbourn and P. Belloni (1990) in "Nitric Oxide from L-Arginine: A Bioregulatory System" (S. Moncada and E. A. Higgs, eds.) pp. 61-67, Elsevier Science Publishers, Amsterdam). For control cells the culture media contained 50% Dulbecco's Modified Eagle's Medium, 45% Ham's F12 Medium with 5% fetal calf serum. […] Nitric oxide formation was monitored by following the increase in the concentration of nitrite in the culture medium. Nitric oxide spontaneously oxidizes to nitrite under the incubator conditions.

[4] = set-up: species or system Swiss-Webster mice; conditions: mouse, in vivo, sc
Procedure: To test the long-term toxicity of N^6 -(hydrazinoiminomethyl)-L-lysine,0.209 ml of a 200 mM solution of the hydrochloride salt of the drug (48 mg/ml) was loaded into each of three Alzet Osmotic Pumps (Model 2001), and the pumps were implanted subcutaneously on the backs of three individual Swiss-Webster mice (wts. 30.7, 34.8 and 33.4 gms) under pentobarbital anesthesia. Each pump delivered the solution of drug at a rate of […] for 1 week.

[5] = Toxicity in awake dog, i.v. bolus plus infusion (Example II); type: in vivo
Procedure: To test the toxicity of N^6 -(hydrazinoiminomethyl)-L-lysine, a 30 kg awake dog was administered the hydrochloride salt of the drug at a dose of 20 mg/kg body weight as a single intravenous (i.v.) bolus. […] After 30 min., an additional dose of 20 mg/kg was given and an i.v. infusion of drug at a rate of 10 mg/kg body weight per hour was started. The infusion was continued for 5 hours. […] The spasms ended within 24 hours (48 hours after the experiment started), and the dog appeared normal and well in all respects.

[6] = rat aortic rings, 0.03 μM phenylephrine, 1 μM acetylcholine, read-out: concentration needed to overcome 50% of the relaxation caused by acetylcholine (ED50)
[7] = ratio of ED 50% approx., inducible isoform

- IC50 [1, 6]: ~1.5 µM
Structure (SMILES): N=C(NCCC[C@H](N)C(=O)O)N[N+](=O)[O-] [NNA, N^G -nitro-L-arginine]
- rank as inhibitor of the inducible isoform among NNA, NAA, NMMA, HAA [2]: least effective inhibitor of the inducible isoform

Structure (SMILES): NN=C(N)NCCCCC(N)C(=O)O (racemic) [N^6 -(hydrazinoiminomethyl)-D,L-lysine, N^6 -(Hydrazinoiminomethyl)-D,L-lysine]
- blood pressure increase compared with L-form (nitric oxide synthase; as Example IV, twice the dosage of the L-form): substantially equal results
- inhibition of nitrite formation by induced endothelial cells compared with L-form ([3]; as Example V, twice the concentration of the L-form): substantially equal results

Structure (SMILES): NN=C(N)NCCCC[C@H](N)C(=O)O [HAA, N^6 -(hydrazinoiminomethyl)-L-lysine]
- increase of blood pressure (nitric oxide synthase; endotoxin 2 mg/kg dog, mean arterial pressure about 70 mm Hg, 20 mg/kg i.v. bolus, within a few minutes): about 30 mm Hg
- time blood pressure remained in physiologically acceptable range (nitric oxide synthase; endotoxin dog, after 20 mg/kg i.v. bolus): about 45 min
- IC50 ([3]; mouse brain endothelial cells, 18 hrs with gamma-interferon 1000 units/ml and tumor necrosis factor 5000 units/ml, read-out: dose required for approximately 50% inhibition (ED 50% approx.) of nitrite formation): ~15.6 µM
- potency relative to NAA [3, 7]: approximately 4 times
- potency relative to NMMA [3, 7]: approximately 8 times
- IC50 [1, 6]: ~10.3 µM
- survival [4]: > 4 weeks
- late signs of toxicity ([5]; dog, in vivo): periodic isolated myoclonic muscle spasms
- time until muscle spasms ended ([5]; dog, in vivo): ≤ 24 h
- signs of toxicity ([5]; dog, in vivo, iv, 20 mg/kg): no signs of toxicity

Structure (SMILES): N/N=C(\N)NCCC[C@H](N)C(=O)O [NAA, N^G -amino-L-arginine, reference compound]
- IC50 [3]: ~62.5 µM
- IC50 [1]: ~4.2 µM
- toxicity at the same dose under similar circumstances ([5]; awake dog, same dose as N6-(hydrazinoiminomethyl)-L-lysine): major seizures

Structure (SMILES): N=C(N)NCCC[C@H](N)C(=O)O [L-ARG, L-arginine, reference compound]
- blood pressure after reversal by substrate (nitric oxide synthase; endotoxin dog treated with HAA, then 400 mg/kg i.v. bolus): dropped precipitously to a level characteristic of septic (endotoxic) shock

- IC50 [1, 6]: ~10.2 µM
Structure (SMILES): CNC(=N)NCCC[C@H](N)C(=O)O [NMMA, N^G -methyl-L-arginine]
